Laboratory results: ChEMBL document CHEMBL4152238, “Design, synthesis, structure-activity relationships and X-ray structural studies of novel 1-oxopyrimido[4,5-c]quinoline-2-acetic acid derivatives as selective and potent inhibitors of human aldose reductase” (Eur J Med Chem, 2018)
The source made the active and inactive calls. The calls are words filed in the database; no cut-off is given here.

What was measured:
[1] = target: Aldo-keto reductase family 1 member B10 (Homo sapiens, UniProt O60218); test: Inhibition of N-terminal His10-tagged AKR1B10 (unknown origin) expressed in Escherichia coli BL21 using D,L-glyceraldehyde as substrate pretreated for 5 mins followed by substrate addition by spectrophotometric method
Sequence of Aldo-keto reductase family 1 member B10 (O60218 whole entry): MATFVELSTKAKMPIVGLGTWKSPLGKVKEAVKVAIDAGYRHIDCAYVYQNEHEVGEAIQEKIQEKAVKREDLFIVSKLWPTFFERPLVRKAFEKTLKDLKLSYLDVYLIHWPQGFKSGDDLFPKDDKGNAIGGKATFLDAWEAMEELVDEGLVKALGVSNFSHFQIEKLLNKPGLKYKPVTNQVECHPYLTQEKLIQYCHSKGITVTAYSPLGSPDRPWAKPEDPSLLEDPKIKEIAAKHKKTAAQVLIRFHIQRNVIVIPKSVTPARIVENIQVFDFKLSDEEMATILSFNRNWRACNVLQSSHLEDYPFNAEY

HT-1080 = test: Cytotoxicity against human HT1080 cells after 72 hrs by MTT assay; format: functional, cell-based; settings: HT-1080, 72 h
[2] = Selectivity ratio of IC50 for N-terminal His10-tagged AKR1B10 (unknown origin) expressed in Escherichia coli BL21 to IC50 for […] AKR1B1 expressed in Escherichia coli BL21
[3] = Inhibition of […] AKR1B1 expressed in Escherichia coli BL21 using D,L-glyceraldehyde as substrate pretreated for 5 mins followed by substrate addition by spectrophotometric method; settings: for Ki: read-out: Ki(app)
Cricetulus griseus = species: Cricetulus griseus; test: Inhibition of […] AKR1B1 expressed in Escherichia coli BL21 up to 10 uM using D,L-glyceraldehyde as substrate pretreated for 5 mins followed by substrate addition by spectrophotometric method

For `Cc1nc2c(-c3ccc(Br)cc3)nc3ccc(F)cc3c2c(=O)n1CC(=O)O`, the IC50 [1] was 9.61 µM, the IC50 (HT-1080) was > 100 µM and the Ratio IC50 [2] was 17. It also gave an IC50 [3] of 0.57 µM.
With `Cc1nc2c(-c3ccc(Br)cc3)nc3ccccc3c2c(=O)n1CC(=O)O` the IC50 [1] was 10 µM, the IC50 (HT-1080) was > 100 µM and the Ratio IC50 [2] was 50. It also gave an IC50 [3] of 0.2 µM and a Ki [3] of 0.15 µM.
In the case of `Cc1nc2c(-c3ccc(Cl)cc3)nc3ccc(F)cc3c2c(=O)n1CC(=O)O`, the IC50 [1] is reported as 8.18 µM, the IC50 (HT-1080) is reported as > 100 µM and the Ratio IC50 [2] is reported as 23. It also gave an IC50 [3] of 0.35 µM and a Ki [3] of 0.24 µM.
With `Nn1c(-c2ccc(Cl)cc2)nc2c(-c3ccc(Cl)cc3)nc3ccc(Cl)cc3c2c1=O` the inhibition (Cricetulus griseus) was “inactive”.
Work on `Cc1nc2c(-c3ccccc3)nc3ccccc3c2c(=O)n1CC(=O)O` yielded an IC50 [1] of 6.39 µM, a Ratio IC50 [2] of 14 and an IC50 [3] of 0.43 to 0.46 µM. For the same compound, the Ki [3] was 0.44 µM.
`CCCc1nc2c(-c3ccc(Cl)cc3)nc3ccccc3c2c(=O)n1CC(=O)O` gave an IC50 [1] of 3.33 µM, a Ratio IC50 [2] of 18 and an IC50 [3] of 0.19 µM. It also gave a Ki [3] of 0.13 µM.
`Cc1nc2c(-c3ccc(Cl)cc3)nc3ccc(Cl)cc3c2c(=O)n1CC(=O)O` gave an IC50 [1] of 9.61 µM, an IC50 (HT-1080) of 30.2 µM and a Ratio IC50 [2] of 6. It also gave an IC50 [3] of 1.54 µM.
For `CCc1nc2c(-c3ccc(Cl)cc3)nc3ccccc3c2c(=O)n1CC(=O)O`, the IC50 [1] was 4.71 µM, the Ratio IC50 [2] was 39 and the IC50 [3] was 0.12 µM. The Ki [3] was 0.073 µM.
`COc1ccc(-c2nc3ccc(Cl)cc3c3c(=O)n(CC(=O)O)c(C)nc23)cc1` showed an IC50 [1] of 17 µM, an IC50 (HT-1080) of 78.1 µM and a Ratio IC50 [2] of 22. The IC50 [3] was 0.76 µM.
Compound `O=C(O)Cn1c(Cc2ccc(Cl)cc2)nc2c(-c3ccc(Cl)cc3)nc3ccccc3c2c1=O` has an IC50 [1] of 2.99 µM, a Ratio IC50 [2] of 3 and an IC50 [3] of 1.01 µM.
For `Cc1nc2c(-c3ccc(Cl)cc3)nc3ccc(Br)cc3c2c(=O)n1CC(=O)O`, the IC50 [1] was 17.8 µM, the IC50 (HT-1080) was > 100 µM and the Ratio IC50 [2] was 8. For the same compound, the IC50 [3] was 2.22 µM.
In the case of `COc1ccc2nc(-c3ccc(Cl)cc3)c3nc(C)n(CC(=O)O)c(=O)c3c2c1`, the IC50 [1] is reported as 15 µM, the IC50 (HT-1080) is reported as 86.7 µM and the Ratio IC50 [2] is reported as 5. For the same compound, the IC50 [3] was 3.14 µM.
For `COc1ccc(-c2nc3ccc(F)cc3c3c(=O)n(CC(=O)O)c(C)nc23)cc1`, the IC50 [1] was 10 µM, the IC50 (HT-1080) was > 100 µM and the Ratio IC50 [2] was 38. For the same compound, the IC50 [3] was 0.26 µM and the Ki [3] was 0.24 µM.
With `Cc1ccc2nc(-c3ccc(Cl)cc3)c3nc(C)n(CC(=O)O)c(=O)c3c2c1` the IC50 [1] was 28.5 µM, the IC50 (HT-1080) was > 100 µM and the Ratio IC50 [2] was 6. The IC50 [3] was 4.92 µM.
With `Nn1c(-c2ccc(Br)cc2)nc2c(-c3ccc(Br)cc3)nc3ccc(Cl)cc3c2c1=O` the inhibition (Cricetulus griseus) was “inactive”.
Work on `CCc1nc2c(-c3ccc(Cl)cc3)nc3ccc(F)cc3c2c(=O)n1CC(=O)O` yielded an IC50 [1] of 3.89 µM, a Ratio IC50 [2] of 9 and an IC50 [3] of 0.41 µM. It also gave a Ki [3] of 0.5 µM.
In the case of `O=C(O)Cn1c(Cc2ccccc2)nc2c(-c3ccc(Cl)cc3)nc3ccccc3c2c1=O`, the IC50 [1] is reported as 2.35 µM, the Ratio IC50 [2] is reported as 1 and the IC50 [3] is reported as 2.65 µM.
With `O=C(O)Cn1c(Cc2ccc(Cl)cc2)nc2c(-c3ccccc3)nc3ccccc3c2c1=O` the IC50 [1] was 5.87 µM, the Ratio IC50 [2] was 9 and the IC50 [3] was 0.66 µM.
In the case of `COc1cccc2c1C(=O)c1c(O)c3c(c(O)c1C2=O)C[C@@](O)(C(=O)CO)C[C@@H]3O[C@H]1C[C@H](N)[C@H](O)[C@H](C)O1` [DOXORUBICIN], the IC50 (HT-1080) is reported as 0.0058 µM.
For `Cc1nc2c(-c3ccc(Cl)cc3)nc3ccccc3c2c(=O)n1CC(=O)O`, the IC50 [1] was 7.86 µM, the IC50 (HT-1080) was > 100 µM and the Ratio IC50 [2] was 37. For the same compound, the IC50 [3] was 0.21 µM and the Ki [3] was 0.13 µM.
For `Cc1nc2c(-c3ccc(Br)cc3)nc3ccc(Br)cc3c2c(=O)n1CC(=O)O`, the IC50 [1] was 16.3 µM, the IC50 (HT-1080) was > 100 µM and the Ratio IC50 [2] was 10. For the same compound, the IC50 [3] was 1.57 µM.
For `Cc1nc2c(-c3ccc(Br)cc3)nc3ccc(Cl)cc3c2c(=O)n1CC(=O)O`, the IC50 [1] was 13.8 µM, the IC50 (HT-1080) was > 100 µM and the Ratio IC50 [2] was 7. For the same compound, the IC50 [3] was 1.92 µM.
